Measurements taken from PubChem BioAssay AID206 (DTP/NCI, 2004).
“And” between values parts separate entries of the source, which are not always exact repeats. Equal values may be shown once. Results filed as inconclusive are left out.

Test system: nude mice, HT29 intrarenal xenograft, tumor weight T/C
Test: NCI In Vivo Anticancer Drug Screen. Data for tumor model HT29;CX-1 Human Adenocarcinoma (MER+) (intrarenal inoculation) in NU/NU Swiss (nude) mice
Settings: endpoint: mean tumor weight change, higher = larger tumour
Procedure, shortened: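 Mice with transplanted tumors are dosed with compound while controls get vehicle only. Survival or tumor burden is then assessed per group, and the treated value is expressed relative to control.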

[1] = dose: 300.0 mg/kg/injection, schedule: Q04DX004 (sc), vehicle: Klucel (hydroxypropylcellulose) (HPC)
[2] = dose: 600.0 mg/kg/injection, schedule: Q04DX004 (sc), vehicle: Klucel (hydroxypropylcellulose) (HPC)
[3] = dose: 25.0 mg/kg/injection, schedule: Q04DX004 (sc), vehicle: saline
[4] = dose: 50.0 mg/kg/injection, schedule: Q04DX004 (sc), vehicle: saline
[5] = dose: 100.0 mg/kg/injection, schedule: Q04DX004 (sc), vehicle: saline
[6] = dose: 200.0 mg/kg/injection, schedule: Q04DX004 (sc), vehicle: saline
[7] = dose: 100.0 mg/kg/injection, schedule: Q01DX010 (sc), vehicle: Klucel (hydroxypropylcellulose) (HPC)
[8] = dose: 200.0 mg/kg/injection, schedule: Q01DX010 (sc), vehicle: Klucel (hydroxypropylcellulose) (HPC)
[9] = dose: 400.0 mg/kg/injection, schedule: Q01DX010 (sc), vehicle: Klucel (hydroxypropylcellulose) (HPC)
[10] = dose: 75.0 mg/kg/injection, schedule: Q04DX004 (sc), vehicle: saline with Tween-80
[11] = dose: 150.0 mg/kg/injection, schedule: Q04DX004 (sc), vehicle: saline with Tween-80
[12] = dose: 300.0 mg/kg/injection, schedule: Q04DX004 (sc), vehicle: saline with Tween-80

With NC(=S)N/N=C\c1ncccc1OCc1cccc(N)c1 the T/C (dose: 225.0 mg/kg/injection, schedule: Q04DX004 (sc), vehicle: saline with Tween-80) was 220 % of control, the T/C (dose: 450.0 mg/kg/injection, schedule: Q04DX004 (sc), vehicle: saline with Tween-80) was 102 % of control and the T/C (dose: 900.0 mg/kg/injection, schedule: Q04DX004 (sc), vehicle: saline with Tween-80) was 121 % of control. For the same compound, the T/C (dose: 1800.0 mg/kg/injection, schedule: Q04DX004 (sc), vehicle: saline with Tween-80) was 99 % of control.

With Cc1cc(Nc2ccc3c(c2)OCO3)c2cc3c(cc2n1)OCO3 the T/C [1] was 79 % of control and the T/C [2] was 198 % of control.

For BrC[P+](CBr)(CBr)CBr, the T/C (dose: 50.0 mg/kg/injection, schedule: Q04DX004 (sc), vehicle: saline with Tween-80) was 86 % of control, the T/C (dose: 100.0 mg/kg/injection, schedule: Q04DX004 (sc), vehicle: saline with Tween-80) was 57 % of control and the T/C (dose: 200.0 mg/kg/injection, schedule: Q04DX004 (sc), vehicle: saline with Tween-80) was 82 % of control. For the same compound, the T/C (dose: 400.0 mg/kg/injection, schedule: Q04DX004 (sc), vehicle: saline with Tween-80) was 103 % of control.

CC(=O)C1=C(O)C2(O)C(=O)c3c(c(C)c4ccc(C)c(O)c4c3O)CC2C(N)C1=O (stereo not drawn) was tested, and the T/C [3] was 153 % of control, the T/C [4] was 173 % of control and the T/C [5] was 102 % of control. The T/C [6] was 109 % of control.

With OCC1OC(n2cnc3c(Cl)ncnc32)C(O)C1O (stereo not drawn) the T/C (dose: 300.0 mg/kg/injection, schedule: Q04DX004 (sc), vehicle: saline) was 94 % of control, the T/C (dose: 600.0 mg/kg/injection, schedule: Q04DX004 (sc), vehicle: saline) was 84 % of control and the T/C (dose: 1200.0 mg/kg/injection, schedule: Q04DX004 (sc), vehicle: saline) was 150 % of control.

For CC1=CC2c3cccc4[nH]cc(c34)CC2N(C)C1 (stereo not drawn), the T/C (dose: 12.5 mg/kg/injection, schedule: Q04DX004 (sc), vehicle: suspension in saline) was 85 % of control, the T/C (dose: 25.0 mg/kg/injection, schedule: Q04DX004 (sc), vehicle: suspension in saline) was 61 % of control and the T/C (dose: 50.0 mg/kg/injection, schedule: Q04DX004 (sc), vehicle: suspension in saline) was 90 % of control.

With C1CCC2OCCOCCOC3CCCCC3OCCOCCOC2C1 (stereo not drawn) the T/C (dose: 37.5 mg/kg/injection, schedule: Q04DX004 (sc), vehicle: Klucel (hydroxypropylcellulose) (HPC)) was 89 % of control and the T/C (dose: 75.0 mg/kg/injection, schedule: Q04DX004 (sc), vehicle: Klucel (hydroxypropylcellulose) (HPC)) was 89 % of control.

In the case of Brc1c(NC2=NCCN2)ccc2nccnc12, the T/C (dose: 12.5 mg/kg/injection, schedule: Q04DX004 (sc), vehicle: saline) is reported as 113 % of control, the T/C [3] is reported as 92 % of control and the T/C [4] is reported as 52 % of control. The T/C [5] was 93 % of control, the T/C [6] was 91 % of control and the T/C (dose: 400.0 mg/kg/injection, schedule: Q04DX004 (sc), vehicle: saline) was 79 % of control.

In the case of CCCCCCCCCCCCCCCCCC(=O)OCC(=O)OCC(=O)[C@]1(O)Cc2c(O)c3c(c(O)c2[C@@H](OC2CC(N)C(O)C(C)O2)C1)C(=O)c1c(OC)cccc1C3=O (stereo partly drawn), the T/C (dose: 3.0 mg/kg/injection, schedule: Q01DX010 (sc), vehicle: water) is reported as 56 % of control, the T/C (dose: 6.0 mg/kg/injection, schedule: Q01DX010 (sc), vehicle: water) is reported as 47 % of control and the T/C (dose: 7.5 mg/kg/injection, schedule: Q04DX004 (sc), vehicle: water) is reported as 86 % of control. For the same compound, the T/C (dose: 12.0 mg/kg/injection, schedule: Q01DX010 (sc), vehicle: water) was 59 % of control, the T/C (dose: 15.0 mg/kg/injection, schedule: Q04DX004 (sc), vehicle: water) was 96 % of control and the T/C (dose: 30.0 mg/kg/injection, schedule: Q04DX004 (sc), vehicle: water) was 38 % of control.

In the case of ClCCCCCCCCCCc1ccccc1, the T/C [7] is reported as 23 % of control, the T/C [8] is reported as 36 % of control and the T/C [9] is reported as 57 % of control.

In the case of O=C1CN(CN2CCOCC2)C(=O)CN1CN1CCOCC1, the T/C (dose: 25.0 mg/kg/injection, schedule: Q01DX010 (sc), vehicle: suspension in saline) is reported as 53 % of control, the T/C (dose: 50.0 mg/kg/injection, schedule: Q01DX010 (sc), vehicle: suspension in saline) is reported as 122 % of control and the T/C (dose: 100.0 mg/kg/injection, schedule: Q01DX010 (sc), vehicle: suspension in saline) is reported as 114 % of control. The T/C (dose: 200.0 mg/kg/injection, schedule: Q01DX010 (sc), vehicle: suspension in saline) was 69 % of control.

For N#CC(C#N)=C/C=C/c1cccc([N+](=O)[O-])c1, the T/C [7] was 40 % of control, the T/C [8] was 38 % of control and the T/C [9] was 74 % of control. The T/C (dose: 800.0 mg/kg/injection, schedule: Q01DX010 (sc), vehicle: Klucel (hydroxypropylcellulose) (HPC)) was 61 % of control.

N#CC(=C1SCS1)[N+](=O)[O-] was tested, and the T/C (dose: 12.0 mg/kg/injection, schedule: Q04DX004 (sc), vehicle: saline) was 22 % of control, the T/C (dose: 24.0 mg/kg/injection, schedule: Q04DX004 (sc), vehicle: saline) was 154 % of control and the T/C (dose: 48.0 mg/kg/injection, schedule: Q04DX004 (sc), vehicle: saline) was 32 % of control. The T/C (dose: 96.0 mg/kg/injection, schedule: Q04DX004 (sc), vehicle: saline) was 45 % of control.

With NC(=O)/C=C/c1c[nH]c2nccnc12 the T/C (dose: 25.0 mg/kg/injection, schedule: Q04DX004 (sc), vehicle: water) was 114 % of control, the T/C (dose: 50.0 mg/kg/injection, schedule: Q04DX004 (sc), vehicle: water) was 64 % of control and the T/C (dose: 100.0 mg/kg/injection, schedule: Q04DX004 (sc), vehicle: water) was 86 % of control. For the same compound, the T/C (dose: 200.0 mg/kg/injection, schedule: Q04DX004 (sc), vehicle: water) was 102 % of control.

In the case of CN1N=C(N)c2cn(C3OC(COP(=O)(O)O)C(O)C3O)c3ncnc1c23 (stereo not drawn), the T/C (dose: 25.0 mg/kg/injection, schedule: Q01DX010 (sc), vehicle: water) is reported as 156 % of control and the T/C (dose: 50.0 mg/kg/injection, schedule: Q01DX010 (sc), vehicle: water) is reported as 182 % of control.

In the case of CCC1(O)CC2CN(CCc3c([nH]c4ccccc34)C(C(=O)OC)(c3cc4c(cc3OC)N(C)C3C(O)(C(N)=O)C(O)C5(CC)C=CCN6CCC43C65)C2)C1 (stereo not drawn) (tested in a mixture with another compound), the T/C (dose: 1.5 mg/kg/injection, schedule: Q04DX004 (sc), vehicle: water) is reported as 87 % of control and the T/C (dose: 12.0 mg/kg/injection, schedule: Q04DX004 (sc), vehicle: water) is reported as -25 % of control.

For Nc1ccc2nc3ccc(N)cc3[n+](-c3ccccc3)c2c1, the T/C (dose: 9.0 mg/kg/injection, schedule: Q04DX004 (sc), vehicle: saline) was 80 % of control, the T/C (dose: 18.0 mg/kg/injection, schedule: Q04DX004 (sc), vehicle: saline) was 62 % of control and the T/C (dose: 36.0 mg/kg/injection, schedule: Q04DX004 (sc), vehicle: saline) was 96 % of control. The T/C (dose: 72.0 mg/kg/injection, schedule: Q04DX004 (sc), vehicle: saline) was 52 % of control.

In the case of CCC(=O)O[C@H]1CC[C@H]2[C@@H]3CCC4=CC(=O)CC[C@]4(C)[C@H]3CC[C@]12C, the T/C [1] is reported as 59 % of control, the T/C [2] is reported as 82 % of control and the T/C (dose: 1200.0 mg/kg/injection, schedule: Q04DX004 (sc), vehicle: Klucel (hydroxypropylcellulose) (HPC)) is reported as 103 % of control. For the same compound, the T/C (dose: 2400.0 mg/kg/injection, schedule: Q04DX004 (sc), vehicle: Klucel (hydroxypropylcellulose) (HPC)) was 52 % of control.

In the case of O=c1n[n+]([O-])ccn1C1OC(CO)C(O)C1O (stereo not drawn), the T/C (dose: 250.0 mg/kg/injection, schedule: Q04DX004 (sc), vehicle: suspension in saline) is reported as 31 % of control, the T/C (dose: 500.0 mg/kg/injection, schedule: Q04DX004 (sc), vehicle: suspension in saline) is reported as 25 % of control and the T/C (dose: 1000.0 mg/kg/injection, schedule: Q04DX004 (sc), vehicle: suspension in saline) is reported as 27 % of control.

CO[C@@H]1[C@H](O)CC[C@]2(CO2)[C@H]1[C@@]1(C)O[C@@H]1CC=C(C)C was tested, and the T/C [10] was 108 % of control, the T/C [11] was 179 % of control and the T/C [12] was 108 % of control. For the same compound, the T/C (dose: 600.0 mg/kg/injection, schedule: Q04DX004 (sc), vehicle: saline with Tween-80) was 110 % of control.

For Nc1nc(N)c2c(Cl)c(CNc3ccc(Cl)c(Cl)c3)ccc2n1, the T/C (dose: 9.38 mg/kg/injection, schedule: Q04DX004 (sc), vehicle: saline with Tween-80) was 85 % of control, the T/C (dose: 18.75 mg/kg/injection, schedule: Q04DX004 (sc), vehicle: saline with Tween-80) was 60 % of control and the T/C (dose: 37.5 mg/kg/injection, schedule: Q04DX004 (sc), vehicle: saline with Tween-80) was 89 % of control and 94 % of control. The T/C [10] was 91 % of control and 97 % of control, the T/C [11] was 113 % of control and the T/C [12] was 64 % of control.
